Data reported in PubChem BioAssay AID248 (DTP/NCI, 2004).
“And” between values parts separate entries of the source, which are not always exact repeats. Identical values can stand only once. Toxic doses and inconclusive results are not listed. Rule as the data show it: active = T/C of 150% or more; inactive = T/C below 125%.

Test system: L1210 leukemia ip in BDF1 mice, survival T/C
Assay: NCI In Vivo Anticancer Drug Screen. Data for tumor model L1210 Leukemia (intraperitoneal) in B6D2F1 (BDF1) mice
Conditions: endpoint: mean survival time, higher = longer survival
Method in brief: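 Tumor was transplanted into mice, which were then dosed with test compound or vehicle alone. Survival was recorded for each group, and the treated figure was expressed relative to the control figure.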

[1] = dose: 25.0 mg/kg/injection, schedule: Q01DX009 (ip), vehicle: saline
[2] = dose: 50.0 mg/kg/injection, schedule: Q01DX009 (ip), vehicle: saline
[3] = dose: 100.0 mg/kg/injection, schedule: Q01DX009 (ip), vehicle: saline
[4] = dose: 100.0 mg/kg/injection, schedule: Q04DX003 (ip), vehicle: saline
[5] = dose: 100.0 mg/kg/injection, schedule: Q01DX001 (ip), vehicle: other
[6] = dose: 200.0 mg/kg/injection, schedule: Q01DX001 (ip), vehicle: other
[7] = dose: 400.0 mg/kg/injection, schedule: Q01DX001 (ip), vehicle: other
[8] = dose: 50.0 mg/kg/injection, schedule: Q01DX009 (ip), vehicle: saline with Tween-80
[9] = dose: 100.0 mg/kg/injection, schedule: Q01DX009 (ip), vehicle: saline with Tween-80
[10] = dose: 200.0 mg/kg/injection, schedule: Q01DX009 (ip), vehicle: saline with Tween-80
[11] = dose: 100.0 mg/kg/injection, schedule: Q04DX003 (ip), vehicle: saline with Tween-80
[12] = dose: 100.0 mg/kg/injection, schedule: Q04DX002 (ip), vehicle: saline
[13] = dose: 200.0 mg/kg/injection, schedule: Q04DX002 (ip), vehicle: saline
[14] = dose: 100.0 mg/kg/injection, schedule: Q04DX003 (ip), vehicle: Klucel (hydroxypropylcellulose) (HPC)
[15] = dose: 200.0 mg/kg/injection, schedule: Q04DX003 (ip), vehicle: Klucel (hydroxypropylcellulose) (HPC)
[16] = dose: 400.0 mg/kg/injection, schedule: Q04DX003 (ip), vehicle: Klucel (hydroxypropylcellulose) (HPC)
[17] = dose: 200.0 mg/kg/injection, schedule: Q04DX003 (ip), vehicle: saline with Tween-80
[18] = dose: 400.0 mg/kg/injection, schedule: Q04DX003 (ip), vehicle: saline with Tween-80
[19] = dose: 200.0 mg/kg/injection, schedule: Q04DX003 (ip), vehicle: saline
[20] = dose: 400.0 mg/kg/injection, schedule: Q04DX003 (ip), vehicle: saline
[21] = dose: 100.0 mg/kg/injection, schedule: Q04DX002 (ip), vehicle: Klucel (hydroxypropylcellulose) (HPC)
[22] = dose: 200.0 mg/kg/injection, schedule: Q04DX002 (ip), vehicle: Klucel (hydroxypropylcellulose) (HPC)
[23] = dose: 400.0 mg/kg/injection, schedule: Q04DX002 (ip), vehicle: Klucel (hydroxypropylcellulose) (HPC)

Measured: T/C

COc1cc2c(cc1OC)CC[N+](C)=C2
inactive: dose: 12.5 mg/kg/injection, schedule: Q01DX009 (ip), vehicle: saline 92 % of control | [1] 95 % of control | dose: 25.0 mg/kg/injection, schedule: Q04DX003 (ip), vehicle: saline 108 % of control | [2] 93 % of control | dose: 50.0 mg/kg/injection, schedule: Q04DX003 (ip), vehicle: saline 100 % of control | [3] 96 % of control | [4] 103 % of control and 106 % of control

CCCCCCCCN(CCCCCCCC)NC(C)=O
inactive: dose: 50.0 mg/kg/injection, schedule: Q01DX001 (ip), vehicle: other 96 % of control | [5] 104 % of control | [6] 96 % of control | [7] 93 % of control

O/N=C\c1ccc(/C=N/O)cc1
inactive: [8] 97 % of control | [9] 93 % of control | [10] 97 % of control

CC(=O)OC1CCC2(C)C(CCC3C2CCC2(C)C3CC3OC(CCC(C)O)C(C)C32)C1 (stereo not given)
inactive: dose: 25.0 mg/kg/injection, schedule: Q04DX002 (ip), vehicle: saline with Tween-80 102 % of control | dose: 50.0 mg/kg/injection, schedule: Q04DX002 (ip), vehicle: saline with Tween-80 98 % of control | dose: 100.0 mg/kg/injection, schedule: Q04DX002 (ip), vehicle: saline with Tween-80 94 % of control

N#C/C=C/C#N
inactive: [11] 92 % of control

Cc1c2cccc(Sc3ccc(F)cc3)c2c2c3c(cccc13)[S+](c1ccc(F)cc1)C2 (stereo not given)
inactive: dose: 12.5 mg/kg/injection, schedule: Q01DX001 (ip), vehicle: Klucel (hydroxypropylcellulose) (HPC) 100 % of control | dose: 25.0 mg/kg/injection, schedule: Q01DX001 (ip), vehicle: Klucel (hydroxypropylcellulose) (HPC) 94 % of control | dose: 50.0 mg/kg/injection, schedule: Q01DX001 (ip), vehicle: Klucel (hydroxypropylcellulose) (HPC) 90 % of control

CC(F)C(Br)C(=O)O (stereo not given)
inactive: [12] 90 % of control | [13] 90 % of control

Cc1ccc(C(=O)Oc2ccc(N=C=S)cc2)cc1
inactive: dose: 75.0 mg/kg/injection, schedule: Q01DX001 (ip), vehicle: carboxymethylcellulose (CMC) 88 % of control | dose: 150.0 mg/kg/injection, schedule: Q01DX001 (ip), vehicle: carboxymethylcellulose (CMC) 90 % of control | dose: 300.0 mg/kg/injection, schedule: Q01DX001 (ip), vehicle: carboxymethylcellulose (CMC) 87 % of control

O=C(Nc1ccccc1-c1ccc([N+](=O)[O-])cc1)c1ccc(Cl)c(Cl)c1
inactive: dose: 100.0 mg/kg/injection, schedule: Q04DX003 (ip), vehicle: water 93 % of control | dose: 200.0 mg/kg/injection, schedule: Q04DX003 (ip), vehicle: water 93 % of control | dose: 400.0 mg/kg/injection, schedule: Q04DX003 (ip), vehicle: water 93 % of control

CCOC(=O)c1cnc(SC)nc1N(c1ccccc1)c1ccccc1
inactive: [14] 90 % of control | [15] 86 % of control | [16] 95 % of control

CN1C=CC(=Cc2ccccc2)C=C1
inactive: dose: 12.5 mg/kg/injection, schedule: Q04DX002 (ip), vehicle: Klucel (hydroxypropylcellulose) (HPC) 90 % of control | dose: 25.0 mg/kg/injection, schedule: Q04DX002 (ip), vehicle: Klucel (hydroxypropylcellulose) (HPC) 107 % of control | dose: 50.0 mg/kg/injection, schedule: Q04DX002 (ip), vehicle: Klucel (hydroxypropylcellulose) (HPC) 107 % of control

COc1ccc(OC)c(NC(=O)Nc2cc(C)ccc2OC)c1
inactive: [14] 95 % of control | [15] 92 % of control | [16] 97 % of control

CC(C)CCC(O)c1c[nH]c(=O)[nH]c1=O (stereo not given)
inactive: [14] 105 % of control | [15] 105 % of control | [16] 94 % of control

O=C(CCCl)Nc1ccc(S(=O)(=O)Nc2nccs2)cc1
inactive: [5] 101 % of control | [6] 95 % of control | [7] 97 % of control

CC(C)CCCC(C)C1CCC2(C)C3=C(C(=O)CC12C)C1(C)CCC(O)C(C)(C)C1/C(=N\O)C3=O (stereo not given)
inactive: [11] 94 % of control | [17] 96 % of control | [18] 97 % of control

COC(=O)Cc1cc(=O)c2ccccc2[nH]1
inactive: [2] 94 % of control | [3] 103 % of control | [4] 96 % of control | dose: 200.0 mg/kg/injection, schedule: Q01DX009 (ip), vehicle: saline 93 % of control | [19] 96 % of control | [20] 91 % of control

CCOC(=O)c1ccc2c(c1)nc1c3cccc4cccc(c(=O)n21)c43
inactive: [11] 86 % of control | [17] 92 % of control | [18] 98 % of control

O=C(N/N=C/c1ccccc1F)c1ccc(Cl)cc1
inactive: [8] 96 % of control | [9] 96 % of control | [10] 96 % of control

O=[N+]([O-])c1ccc(N=Nc2ccc(O)cc2)cc1
inactive: dose: 55.0 mg/kg/injection, schedule: Q01DX Z (ip), vehicle: methylcellulose (MC) 103 % of control | dose: 83.0 mg/kg/injection, schedule: Q01DX Z (ip), vehicle: methylcellulose (MC) 117 % of control | [11] 98 % of control | dose: 125.0 mg/kg/injection, schedule: Q01DX Z (ip), vehicle: methylcellulose (MC) 103 % of control | [17] 91 % of control | [18] 98 % of control

CCCc1c(C)[nH]c2ccccc12
inactive: dose: 100.0 mg/kg/injection, schedule: Q01DX009 (ip), vehicle: Klucel (hydroxypropylcellulose) (HPC) 104 % of control | [14] 105 % of control | dose: 200.0 mg/kg/injection, schedule: Q01DX009 (ip), vehicle: Klucel (hydroxypropylcellulose) (HPC) 92 % of control | [15] 104 % of control | dose: 400.0 mg/kg/injection, schedule: Q01DX009 (ip), vehicle: Klucel (hydroxypropylcellulose) (HPC) 95 % of control | [16] 105 % of control

CC(=O)C[N+]12CN3CN(CN(C3)C1)C2
inactive: [1] 96 % of control | dose: 50.0 mg/kg/injection, schedule: Q01DX005 (ip), vehicle: saline 103 % of control | [2] 111 % of control | dose: 100.0 mg/kg/injection, schedule: Q01DX005 (ip), vehicle: saline 103 % of control | [3] 109 % of control | [12] 96 % of control | [13] 107 % of control

Cc1cccc(C2=N/C(=C\c3cccc([N+](=O)[O-])c3)C(=O)O2)c1
inactive: [21] 92 % of control | [22] 92 % of control | [23] 100 % of control

O=S(=O)(Cc1ccccc1)C(I)c1ccccc1 (stereo not given)
inactive: [21] 108 % of control | [22] 122 % of control | [23] 105 % of control

Cc1ccc(SSc2ccc(C)cc2)cc1
inactive: dose: 75.0 mg/kg/injection, schedule: Q01DX009 (ip), vehicle: saline 108 % of control | [4] 101 % of control | [19] 103 % of control | [20] 88 % of control

CCN(CC)CCSC(=O)c1ccc([N+](=O)[O-])cc1
inactive: dose: 100.0 mg/kg/injection, schedule: Q01DX001 (ip), vehicle: saline 98 % of control | dose: 200.0 mg/kg/injection, schedule: Q01DX001 (ip), vehicle: saline 104 % of control
